Values quoted from earlier work, collected in patent publication US5817671A, “5-HT1F agonists” (Eli Lilly and Company, priority 1997, dated 1998).

Experiments:
[1] = in vivo
[2] = in vivo; remark: listed apart in the source
[3] = treatment of migraine
[4] = test system: neurogenic inflammation, peptide extravasation; conditions: Moskowitz, Neurology 43(suppl. 3), S16-S20 (1993)
[5] = test system: exploratory behavior of arthritic rats; conditions: arthritic animals; Larsen and Arnt (1985)
5-HT1F receptor = molecular target: T1, 5-HT1F receptor (Homo sapiens, UniProt P30939); conditions: reported by Weinshank et al., WO93/14201
T1 sequence (P30939 1-366): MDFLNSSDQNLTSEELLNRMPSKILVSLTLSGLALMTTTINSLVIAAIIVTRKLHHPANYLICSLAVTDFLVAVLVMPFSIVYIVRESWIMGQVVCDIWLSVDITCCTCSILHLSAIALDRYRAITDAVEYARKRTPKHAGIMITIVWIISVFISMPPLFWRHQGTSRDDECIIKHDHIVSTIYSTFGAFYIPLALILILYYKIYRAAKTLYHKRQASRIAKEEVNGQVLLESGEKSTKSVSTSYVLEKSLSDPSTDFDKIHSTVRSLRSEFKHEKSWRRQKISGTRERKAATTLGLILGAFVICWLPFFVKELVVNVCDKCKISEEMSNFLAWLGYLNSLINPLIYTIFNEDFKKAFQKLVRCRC

CNS(=O)(=O)Cc1ccc2[nH]cc(CCN(C)C)c2c1 [Sumatriptan]
duration of action (in words) [1]: relatively short duration of action
bioavailability (in words) [2]: low bioavailability
undesirable side effects (in words) [3]: undesirable side effects, particularly vasoconstriction
block of neurogenic inflammation (in words) [4]: neurogenic inflammation is blocked

CN(C)CCCC1(c2ccc(F)cc2)OCc2cc(C#N)ccc21 (stereo not drawn) [citalopram]
effect on exploratory behavior (in words) [5]: improve exploratory behavior

NCCc1c[nH]c2ccc(O)cc12 [serotonin]
inhibition of forskolin stimulated cAMP production (in words) (5-HT1F receptor): inhibit forskolin stimulated cAMP production
